Read-outs that look alike come from different tables or passages of the source. Starred links: 1 amine or outer side, 2 acyl side, 3 side chain; linkers in the order of their positions; H or OH if unused. Non-standard residues stand in square brackets, D forms with d. Residues, ends and D or L forms follow the SMILES beside them. Groups on a side chain read outwards from the residue. No end group written: not given here. *: point of attachment. C18 diacid = O=C(O)CCCCCCCCCCCCCCCCC(=O)*; αMePhe(2-F) = C[C@](N)(Cc1ccccc1F)C(=O)O; γGlu = O=C(O)[C@H](CCC(=O)[*:2])N[*:1]; αMe4Pal = C[C@](N)(Cc1ccncc1)C(=O)O; αMeY = C[C@](N)(Cc1ccc(O)cc1)C(=O)O; 4Pal = N[C@@H](Cc1ccncc1)C(=O)O; αMeL = CC(C)C[C@](C)(N)C(=O)O; αMeS = C[C@](N)(CO)C(=O)O; Orn = NCCC[C@H](N)C(=O)O; AEEA = NCCOCCOCC(=O)O; Aib = CC(C)(N)C(=O)O
Legend:
Type in all cases: cell-based
hGLP-1R [1] = molecular target: T1, hGLP-1R (Homo sapiens, UniProt P43220); assay: Functional cAMP activation in the presence of 0.1% casein (no HSA); conditions: read-out: Relative cAMP EC50, hGLP-1R;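 also: intracellular cAMP rise after 30 min at 37 °C read by HTRF, normalized between buffer only (0%) and maximal control ligand (100%), four-parameter variable-slope fit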
hGIPR [2] = molecular target: T2, hGIPR (Homo sapiens, UniProt P48546); assay: Functional cAMP activity in the presence of 1% HSA; conditions: read-out: cAMP Rel EC50, hGIPR
T2 sequence (P48546 22-466): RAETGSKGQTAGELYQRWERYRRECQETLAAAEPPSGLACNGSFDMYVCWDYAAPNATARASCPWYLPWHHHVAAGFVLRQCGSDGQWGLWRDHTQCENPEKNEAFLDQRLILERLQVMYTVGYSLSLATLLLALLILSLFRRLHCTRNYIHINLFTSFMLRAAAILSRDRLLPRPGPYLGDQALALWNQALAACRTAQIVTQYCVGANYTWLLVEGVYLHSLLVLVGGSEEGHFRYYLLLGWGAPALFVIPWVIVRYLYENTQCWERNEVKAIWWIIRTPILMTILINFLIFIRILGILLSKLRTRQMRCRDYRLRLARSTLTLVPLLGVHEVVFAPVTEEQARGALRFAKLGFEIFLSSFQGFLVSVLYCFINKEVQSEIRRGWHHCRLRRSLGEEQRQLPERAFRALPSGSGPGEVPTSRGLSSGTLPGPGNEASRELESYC

hGcgR = hGcgR (Homo sapiens, UniProt P47871); assay: Functional cAMP activation in the presence of 0.1% casein (no HSA); conditions: read-out: Relative cAMP EC50, hGcgR;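 also: intracellular cAMP rise after 30 min at 37 °C, read by HTRF against a cAMP standard curve, scaled from buffer only (0%) to maximal control ligand response (100%)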
hGLP-1R [3] = molecular target: T1, hGLP-1R; assay: Functional cAMP activity in the presence of 1% HSA; conditions: read-out: cAMP Rel EC50, hGLP-1R
hGIPR [4] = molecular target: T2, hGIPR; assay: Functional cAMP activation in the presence of 0.1% casein (no HSA); conditions: read-out: Relative cAMP EC50, hGIPR;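 also: intracellular cAMP rise after 30 min at 37 °C read by HTRF against a standard curve, scaled between buffer alone (0%) and top control ligand concentration (100%), four-parameter fit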
human GcgR = human GcgR (Homo sapiens, UniProt P47871); assay: Functional cAMP activity in the presence of 1% HSA; conditions: read-out: cAMP Rel EC50, hGcgR
[5] = 0.1% casein, no HSA, geometric mean
[6] = in the presence of 0.1% casein (no HSA), geometric mean

T1 sequence (P43220 24-463): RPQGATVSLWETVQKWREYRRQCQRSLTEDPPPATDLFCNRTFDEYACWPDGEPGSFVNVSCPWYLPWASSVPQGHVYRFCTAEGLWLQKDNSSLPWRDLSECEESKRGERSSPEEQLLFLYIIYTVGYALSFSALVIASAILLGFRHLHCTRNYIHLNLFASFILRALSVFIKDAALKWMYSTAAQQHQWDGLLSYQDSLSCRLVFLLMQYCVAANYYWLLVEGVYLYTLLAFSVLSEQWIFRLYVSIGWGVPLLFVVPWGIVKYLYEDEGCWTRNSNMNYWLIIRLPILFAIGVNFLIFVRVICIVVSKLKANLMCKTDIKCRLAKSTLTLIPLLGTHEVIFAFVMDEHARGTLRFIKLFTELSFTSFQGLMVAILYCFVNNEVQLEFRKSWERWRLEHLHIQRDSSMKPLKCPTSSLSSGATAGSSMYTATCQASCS
Chain of human GcgR (P47871 26-477): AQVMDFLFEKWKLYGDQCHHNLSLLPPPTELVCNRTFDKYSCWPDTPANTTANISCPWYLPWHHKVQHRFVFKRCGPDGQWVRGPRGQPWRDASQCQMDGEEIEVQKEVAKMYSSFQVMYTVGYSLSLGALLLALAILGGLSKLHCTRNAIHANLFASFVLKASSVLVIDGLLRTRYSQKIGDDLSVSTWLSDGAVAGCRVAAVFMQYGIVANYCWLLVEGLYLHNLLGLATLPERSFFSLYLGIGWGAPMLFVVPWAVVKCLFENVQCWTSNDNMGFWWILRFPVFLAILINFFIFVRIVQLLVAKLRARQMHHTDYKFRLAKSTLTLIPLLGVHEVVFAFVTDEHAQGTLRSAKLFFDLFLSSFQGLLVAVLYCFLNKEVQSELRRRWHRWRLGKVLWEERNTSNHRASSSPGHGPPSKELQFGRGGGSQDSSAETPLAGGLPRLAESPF
Chain of hGcgR (P47871 26-477): as above

| Compound | EC50 (hGLP-1R [1]) | EC50 (hGIPR [2]) | EC50 (hGcgR) | EC50 (hGLP-1R [3]) | EC50 (hGIPR [4]) | EC50 (human GcgR) | EC50 (hGLP-1R [1]; [5]) | EC50 (hGcgR; [5]) | EC50 (hGIPR [4]; [5]) | EC50 (hGLP-1R [1]; [6]) | EC50 (hGcgR; [6]) | EC50 (hGIPR [4]; [6]) |
| --- | --- | --- | --- | --- | --- | --- | --- | --- | --- | --- | --- | --- |
| CC[C@H](C)[C@H](NC(=O)[C@H](Cc1ccccc1)NC(=O)[C@H](CCCN)NC(=O)C(C)(C)NC(=O)[C@H](CCC(N)=O)NC(=O)[C@H](C)NC(=O)[C@H](CCCCNC(=O)CC[C@H](NC(=O)CC[C@H](NC(=O)CCCCCCCCCCCCCCCCC(=O)O)C(=O)O)C(=O)O)NC(=O)[C@H](CCCN)NC(=O)[C@H](CC(=O)O)NC(=O)[C@H](CC(C)C)NC(=O)[C@](C)(CC(C)C)NC(=O)[C@@H](NC(=O)[C@](C)(CO)NC(=O)[C@H](Cc1ccncc1)NC(=O)[C@H](CC(=O)O)NC(=O)[C@H](CO)NC(=O)[C@@H](NC(=O)[C@](C)(Cc1ccccc1F)NC(=O)[C@@H](NC(=O)CNC(=O)[C@H](CCC(N)=O)NC(=O)C(C)(C)NC(=O)[C@@H](N)Cc1ccc(O)cc1)[C@@H](C)O)[C@@H](C)O)[C@@H](C)CC)C(=O)N[C@H](CCC(=O)O)C(=O)N[C@@](C)(Cc1ccc(O)cc1)C(=O)N[C@@H](CC(C)C)C(=O)N[C@@H](CO)C(=O)N[C@@H](CCC(=O)O)C(=O)NCC(=O)NCC(=O)N1CCC[C@H]1C(=O)N[C@@H](CO)C(=O)N[C@@H](CO)C(=O)NCC(=O)N[C@@H](CCC(=O)O)C(=O)N1CCC[C@H]1C(=O)N1CCC[C@H]1C(=O)N1CCC[C@H]1C(=O)N[C@@H](CCC(=O)O)C(N)=O [Example 438] (H-Y[Aib]QGT[αMePhe(2-F)]TSD[4Pal][αMeS]I[αMeL]LD[Orn]K([γGlu-γGlu-C18 diacid])AQ[Aib][Orn]FI[dE][αMeY]LSEGGPSSGEPPPE-NH2) | 0.815 nM | 53.8 nM | 3.62 nM | 41.1 nM | 0.225 nM | 431 nM |  |  |  |  |  |  |
| Y[Aib]QGT[αMePhe(2-F)]TSD[4Pal][αMeS]I[αMeL]LD[Orn]K([AEEA-γGlu-C18 diacid])AQ[αMe4Pal]EFI[dE][αMeY]LIEGGPPS[Aib]EPPP[Orn]GE-NH2 [Example 1193] |  | 0.803 nM |  | 66.2 nM |  | 202 nM | 0.544 nM | 1.56 nM | 0.00897 nM |  |  |  |
| CC[C@H](C)[C@H](NC(=O)[C@H](Cc1ccccc1)NC(=O)[C@H](C)NC(=O)C(C)(C)NC(=O)[C@H](CCC(N)=O)NC(=O)[C@H](C)NC(=O)[C@H](CCCCNC(=O)COCCOCCNC(=O)CC[C@H](NC(=O)CCCCCCCCCCCCCCCCC(=O)O)C(=O)O)NC(=O)[C@H](CCCCN)NC(=O)[C@H](CC(=O)O)NC(=O)[C@H](CC(C)C)NC(=O)[C@](C)(CC(C)C)NC(=O)[C@@H](NC(=O)[C@H](CO)NC(=O)[C@H](Cc1ccc(O)cc1)NC(=O)[C@H](CC(=O)O)NC(=O)[C@H](CO)NC(=O)[C@@H](NC(=O)[C@](C)(Cc1ccccc1F)NC(=O)[C@@H](NC(=O)CNC(=O)[C@H](CCC(N)=O)NC(=O)C(C)(C)NC(=O)[C@@H](N)Cc1ccc(O)cc1)[C@@H](C)O)[C@@H](C)O)[C@@H](C)CC)C(=O)N[C@@H](CCC(=O)O)C(=O)N[C@@H](Cc1ccc(O)cc1)C(=O)N[C@@H](CC(C)C)C(=O)N[C@@H](CCC(=O)O)C(=O)N[C@@H](CCC(=O)O)C(=O)NCC(=O)NCC(=O)N1CCC[C@H]1C(=O)N[C@@H](CO)C(=O)N[C@@H](CO)C(=O)NCC(=O)N[C@@H](C)C(=O)N1CCC[C@H]1C(=O)N[C@@H](CCC(=O)O)C(=O)N1CCC[C@H]1C(=O)N[C@@H](CO)C(N)=O [Example 423] (H-Y[Aib]QGT[αMePhe(2-F)]TSDYSI[αMeL]LDKK([AEEA-γGlu-C18 diacid])AQ[Aib]AFIEYLEEGGPSSGAPEPS-NH2) | 0.194 nM | 3.07 nM | 1.92 nM | 28.7 nM | 0.0114 nM | 319 nM |  |  |  |  |  |  |
| H-Y[Aib]QGTFTSD[4Pal]SQ[αMeL]LD[Orn]K([γGlu-γGlu-C18 diacid])AQ[αMe4Pal]AFIEYLIE[Aib]GPSSGAPPPSGSEE-NH2 [Example 937] |  | 19.7 nM |  | 261 nM |  | 1160 nM |  |  |  | 2.52 nM | 5.52 nM | 0.222 nM |
| H-Y[Aib]QGTFTSD[4Pal]SR[αMeL]LDKK([AEEA-γGlu-C18 diacid])AQ[Aib]AFIEYLIE[Aib]GPSSGAPPPSGS-NH2 [Example 802] |  | 16.9 nM |  | 153 nM |  | 2520 nM |  |  |  | 1.41 nM | 16.6 nM | 0.124 nM |

Reference: patent US20240270821A1, “GIP/GLP1/GCG TRI-RECEPTOR AGONISTS AND USES THEREOF” (priority 2023, published 2024)
